Values quoted from earlier work as cited in patent publication US6232438A, “Angiotensin converting enzyme inhibitors” (Nong Shim Co., Ltd., priority 1996, dated 2001).

Target: ACE (Homo sapiens, UniProt P12821)
Settings: peptide from enzymatic hydrolysate of milk casein

Chain of ACE (P12821 30-1306, species assumed): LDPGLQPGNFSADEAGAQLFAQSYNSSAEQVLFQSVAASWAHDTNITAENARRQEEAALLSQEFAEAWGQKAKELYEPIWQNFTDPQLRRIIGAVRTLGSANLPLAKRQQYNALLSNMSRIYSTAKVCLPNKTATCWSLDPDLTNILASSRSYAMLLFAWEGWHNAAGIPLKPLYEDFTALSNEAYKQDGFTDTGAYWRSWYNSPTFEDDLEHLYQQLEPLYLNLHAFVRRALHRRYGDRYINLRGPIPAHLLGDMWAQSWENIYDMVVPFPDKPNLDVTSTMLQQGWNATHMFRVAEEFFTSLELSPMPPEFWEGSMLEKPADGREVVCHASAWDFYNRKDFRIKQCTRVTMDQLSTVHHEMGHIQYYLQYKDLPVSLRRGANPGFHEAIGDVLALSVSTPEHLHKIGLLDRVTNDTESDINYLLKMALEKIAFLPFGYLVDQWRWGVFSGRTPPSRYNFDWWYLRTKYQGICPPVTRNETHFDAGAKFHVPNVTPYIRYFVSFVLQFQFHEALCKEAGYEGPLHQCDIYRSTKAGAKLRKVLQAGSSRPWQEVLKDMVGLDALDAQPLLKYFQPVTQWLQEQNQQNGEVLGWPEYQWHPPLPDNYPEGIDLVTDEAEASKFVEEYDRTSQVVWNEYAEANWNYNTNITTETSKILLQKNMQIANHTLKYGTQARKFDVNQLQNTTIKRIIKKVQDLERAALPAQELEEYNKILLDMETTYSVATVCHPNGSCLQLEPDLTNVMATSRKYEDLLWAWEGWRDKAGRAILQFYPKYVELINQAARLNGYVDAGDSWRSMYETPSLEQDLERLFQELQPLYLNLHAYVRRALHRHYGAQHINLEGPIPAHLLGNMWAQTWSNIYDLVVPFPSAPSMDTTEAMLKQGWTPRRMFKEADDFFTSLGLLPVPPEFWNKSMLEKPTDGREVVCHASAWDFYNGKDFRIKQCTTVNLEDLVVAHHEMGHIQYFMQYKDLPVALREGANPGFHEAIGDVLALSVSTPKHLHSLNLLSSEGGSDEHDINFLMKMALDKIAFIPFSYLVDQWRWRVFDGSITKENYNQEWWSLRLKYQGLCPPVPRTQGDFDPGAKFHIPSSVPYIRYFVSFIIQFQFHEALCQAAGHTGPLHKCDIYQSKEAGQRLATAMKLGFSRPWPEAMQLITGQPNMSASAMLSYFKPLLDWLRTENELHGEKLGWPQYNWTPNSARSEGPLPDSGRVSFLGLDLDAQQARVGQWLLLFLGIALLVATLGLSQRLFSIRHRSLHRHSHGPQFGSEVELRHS

Question: Which IC50 does the source give for “phenylalanine-phenylalanine-valine-alanine-proline” here?
Answer: 6 µM
